# Measurements: patent publication US4863713A, “Method and system for administering therapeutic and diagnostic agents” (priority 1986, dated 1989)
# Assays:
# [1] = Whole body retention of antibody complexes of EDTA-111In or 57Co compounds (Example 4); format: in vivo, Balb/C mice; details: WC3A11 complex
# Experimental: EDTA and BABE-EDTA were complexed with ^111 In and bleomycin, with ^57 Co, as in Example 1. […] BLEDTA-IV-^111 In, a bleomycin-EDTA-In compound containing EDTA linked to bleomycin through a dithiobutane spacer, was prepared as described in co-owned patent application for "Bleomycin Conjugates and Methods". TBEDTA-^111 In was prepared as in Example 1. WC3A11 antibody complexes were formed by incubating the WC3A11 antibody from Example 2 with a selected ^111 In cpm amount of (a) ^111 -In-EDTA, (b) ^111 In-BABE-EDTA, (c) BLEDTA-II-^111 In, (d) BL-^57 Co. (e) BLEDTA-IV-^111 In, or (f) TBEDTA-^111 In.
# Each of the antibody/EDTA-^111 In or ^57 Co complexes (a)-(f) was subjected intravenously to each of three Balb/C mice, in an amount between about 200-800 μg per animal. Twenty-four hours after the injection, the total body radioactivity of ^111 In was measured in a dual-probe scintillation counter. The values were averaged for the three animals. […] By contrast, the antibody complexes of compounds (e) and (f) (both of which contain a thiobutane-BABE-EDTA moiety) were retained to more than 30% after 24 hours, at an initial dose of about 180 μg antibody, and to greater than about 70% of an initial antibody dose of about 800 μg antibody.
# [2] = system: KHJJ adenocarcinoma tumor; test: Tumor targeting, first study: antibody complexed with L-benzyl-EDTA-111In, 24 h biodistribution; format: in vivo, Balb/C mice
# Experimental: (§1) This example examines the targeting of ^111 In in animal tumors, according to the method of the invention. Balb/C mice were prepared with a KHJJ adenocarcinoma tumor implants in the flank. A hybridoma cell line designated CHA255 specific against L-benzyl-EDTA-In was prepared by methods similar to those described in Example II, using as an immunogen, an L-benzyl-EDTA-In (para-nitrophenolbenzyl-EDTA-In) group derivatized in KLH.
# In a first study, a group of three mice were initially injected with 100 ug (about 0.7 nmole) of the CHA255 antibody complexed with L-benzyl-EDTA-^111 In compound. Twenty four hours later, the animals were sacrificed, and examined for ^111 In levels in the blood, tumor, and several organs which are listed in Table 3A. The radioactivity levels were calculated in terms of percent of total radioactivity per gram tissue. The average of values obtained for three mice, and standard deviations, are given to the middle column in Table 2A. Tumor/organ (T/O) ratios are shown at the right the table.
# [3] = system: KHJJ adenocarcinoma tumor; test: Tumor targeting, second study: antibody 23 h prior to hapten, 1 h post hapten biodistribution; format: in vivo, Balb/C mice
# Experimental: as §1
# In a second study, the antibody alone was administered to each of three animals, and allowed to localize for 23 hours, at which time the L-benzyl-EDTA-^111 In compound was administered. One hour later the animals were sacrificed and again examined for radioactivity levels.
# [4] = system: KHJJ adenocarcinoma tumor; test: Tumor targeting, third study: antibody, clearing agent, then hapten; 3 h post hapten biodistribution; format: in vivo, Balb/C mice
# Experimental: as §1
# A third study examined the degree of tumor localization achievable by an antibody, antibody clearance, and compound administration regimen carried out in accordance with the invention. The CHA255 antibody was administered to each of three animals and allowed to localize for 24 hours, at which time the antibody was cleared from the bloodstream by administration of a clearing agent consisting of transferring derivatized with L-benzyl-EDTA-In. One hour later, the L-benzyl-EDTA-^111 In compound was administered, and the animals sacrificed after an additional three hours.
# [5] = Whole body retention of radionuclide 24 hours after antibody/chelate complex (Table 1); format: in vivo; details: WC3A11 antibody; vs less tightly bound In-TBEDTA
# [6] = system: KHJJ adenocarcinoma tumor; test: Tumor imaging and biodistribution after WC3A11, clearing agent and radiolabelled chelate (Example 6); format: in vivo, Balb/c mice
# Experimental: Three hours later, a whole-body scan, using computer digitation of the whole-body image, was performed on the animals.
compound,measurement,setting,value
O=C([O-])CN(CC(=O)[O-])CC(Cc1ccc(NC(=O)CSCCCCS)cc1)N(CC(=O)[O-])CC(=O)[O-].[111In+3] (stereo not drawn) [TBEDTA-^111 In],"retained after 24 hours, about 180 μg antibody",[1]; initial dose about 180 μg antibody,more than 30%
same,"retained after 24 hours, about 800 μg antibody",[1]; initial dose about 800 μg antibody,greater than 70%
O=C([O-])CN(CC(=O)[O-])CC(Cc1ccccc1)N(CC(=O)[O-])CC(=O)[O-].[111In+3] [L-benzyl-EDTA-^111 In],radioactivity remaining in blood and localized in tumor (in words),"[2]; 24 hours, Table 2A","a large percentage of radioactivity remained in the blood, although high amounts were also tumor-localized"
same,"24 Hr Conc, Blood","[2]; Hapten-Ab complex (CHA255), 24 h, blood",13.41 ± 1.48 %/gm
same,"24 Hr Conc, Bone","[2]; Hapten-Ab complex (CHA255), 24 h, bone",1.42 ± 0.22 %/gm
same,"24 Hr Conc, Gut","[2]; Hapten-Ab complex (CHA255), 24 h, gut",2.07 ± 1.42 %/gm
same,"24 Hr Conc, Heart","[2]; Hapten-Ab complex (CHA255), 24 h, heart",3.23 ± 0.48 %/gm
same,"24 Hr Conc, Kidneys","[2]; Hapten-Ab complex (CHA255), 24 h, kidneys",3.73 ± 0.81 %/gm
same,"24 Hr Conc, Liver","[2]; Hapten-Ab complex (CHA255), 24 h, liver",5.76 ± 0.86 %/gm
same,"24 Hr Conc, Lungs","[2]; Hapten-Ab complex (CHA255), 24 h, lungs",6.50 ± 0.91 %/gm
same,"24 Hr Conc, Muscle","[2]; Hapten-Ab complex (CHA255), 24 h, muscle",1.18 ± 0.16 %/gm
same,"24 Hr Conc, Skin","[2]; Hapten-Ab complex (CHA255), 24 h, skin",2.35 ± 1.19 %/gm
same,"24 Hr Conc, Spleen","[2]; Hapten-Ab complex (CHA255), 24 h, spleen",2.50 ± 0.37 %/gm
same,"24 Hr Conc, Tumor","[2]; Hapten-Ab complex (CHA255), 24 h, tumor",11.26 ± 1.40 %/gm
same,"T/O Ratio, Blood","[2]; Hapten-Ab complex, 24 h, tumor/blood",0.8
same,"T/O Ratio, Bone","[2]; Hapten-Ab complex, 24 h, tumor/bone",8.0
same,"T/O Ratio, Gut","[2]; Hapten-Ab complex, 24 h, tumor/gut",7.4
same,"T/O Ratio, Heart","[2]; Hapten-Ab complex, 24 h, tumor/heart",3.5
same,"T/O Ratio, Kidneys","[2]; Hapten-Ab complex, 24 h, tumor/kidneys",3.1
same,"T/O Ratio, Liver","[2]; Hapten-Ab complex, 24 h, tumor/liver",2.0
same,"T/O Ratio, Lungs","[2]; Hapten-Ab complex, 24 h, tumor/lungs",1.7
same,"T/O Ratio, Muscle","[2]; Hapten-Ab complex, 24 h, tumor/muscle",9.6
same,"T/O Ratio, Skin","[2]; Hapten-Ab complex, 24 h, tumor/skin",5.7
same,"T/O Ratio, Spleen","[2]; Hapten-Ab complex, 24 h, tumor/spleen",4.5
same,"Conc 1 Hr Post Hapten, Blood","[3]; Ab 23 Hr prior to hapten, 1 h, blood",24.01 ± 0.80 %/gm
same,"Conc 1 Hr Post Hapten, Bone","[3]; Ab 23 Hr prior to hapten, 1 h, bone",1.57 ± 0.09 %/gm
same,"Conc 1 Hr Post Hapten, Gut","[3]; Ab 23 Hr prior to hapten, 1 h, gut",1.51 ± 0.19 %/gm
same,"Conc 1 Hr Post Hapten, Heart","[3]; Ab 23 Hr prior to hapten, 1 h, heart",5.40 ± 0.49 %/gm
same,"Conc 1 Hr Post Hapten, Kidneys","[3]; Ab 23 Hr prior to hapten, 1 h, kidneys",5.87 ± 0.81 %/gm
same,"Conc 1 Hr Post Hapten, Liver","[3]; Ab 23 Hr prior to hapten, 1 h, liver",6.35 ± 0.50 %/gm
same,"Conc 1 Hr Post Hapten, Lungs","[3]; Ab 23 Hr prior to hapten, 1 h, lungs",9.72 ± 0.24 %/gm
same,"Conc 1 Hr Post Hapten, Muscle","[3]; Ab 23 Hr prior to hapten, 1 h, muscle",1.44 ± 0.16 %/gm
same,"Conc 1 Hr Post Hapten, Skin","[3]; Ab 23 Hr prior to hapten, 1 h, skin",1.60 ± 0.20 %/gm
same,"Conc 1 Hr Post Hapten, Spleen","[3]; Ab 23 Hr prior to hapten, 1 h, spleen",3.03 ± 0.27 %/gm
same,"Conc 1 Hr Post Hapten, Tumor","[3]; Ab 23 Hr prior to hapten, 1 h, tumor",4.08 ± 0.51 %/gm
same,"T/O Ratio, Blood","[3]; Ab 23 Hr prior to hapten, 1 h, tumor/blood",0.17
same,"T/O Ratio, Bone","[3]; Ab 23 Hr prior to hapten, 1 h, tumor/bone",2.59
same,"T/O Ratio, Gut","[3]; Ab 23 Hr prior to hapten, 1 h, tumor/gut",2.73
same,"T/O Ratio, Heart","[3]; Ab 23 Hr prior to hapten, 1 h, tumor/heart",0.76
same,"T/O Ratio, Kidneys","[3]; Ab 23 Hr prior to hapten, 1 h, tumor/kidneys",0.70
same,"T/O Ratio, Liver","[3]; Ab 23 Hr prior to hapten, 1 h, tumor/liver",0.64
same,"T/O Ratio, Lungs","[3]; Ab 23 Hr prior to hapten, 1 h, tumor/lungs",0.42
same,"T/O Ratio, Muscle","[3]; Ab 23 Hr prior to hapten, 1 h, tumor/muscle",2.84
same,"T/O Ratio, Skin","[3]; Ab 23 Hr prior to hapten, 1 h, tumor/skin",2.57
same,"T/O Ratio, Spleen","[3]; Ab 23 Hr prior to hapten, 1 h, tumor/spleen",1.36
same,tumor uptake and tumor/organ uptake ratios (in words),[3]; compared with coadministration of antibody and In compound,lower levels of tumor uptake and lower tumor/organ uptake ratios
same,"Conc 3 Hrs Post Hapten, Blood","[4]; Ab 25 Hr, blocking agent 1 Hr prior to hapten, 3 h, blood",0.95 ± 0.44 %/gm
same,"Conc 3 Hrs Post Hapten, Bone","[4]; Ab 25 Hr, blocking agent 1 Hr prior to hapten, 3 h, bone",1.50 ± 0.37 %/gm
same,"Conc 3 Hrs Post Hapten, Gut","[4]; Ab 25 Hr, blocking agent 1 Hr prior to hapten, 3 h, gut",2.66 ± 0.61 %/gm
same,"Conc 3 Hrs Post Hapten, Heart","[4]; Ab 25 Hr, blocking agent 1 Hr prior to hapten, 3 h, heart",0.92 ± 0.29 %/gm
same,"Conc 3 Hrs Post Hapten, Kidneys","[4]; Ab 25 Hr, blocking agent 1 Hr prior to hapten, 3 h, kidneys",1.10 ± 0.16 %/gm
same,"Conc 3 Hrs Post Hapten, Liver","[4]; Ab 25 Hr, blocking agent 1 Hr prior to hapten, 3 h, liver",0.87 ± 0.39 %/gm
same,"Conc 3 Hrs Post Hapten, Lungs","[4]; Ab 25 Hr, blocking agent 1 Hr prior to hapten, 3 h, lungs",2.55 ± 0.24 %/gm
same,"Conc 3 Hrs Post Hapten, Muscle","[4]; Ab 25 Hr, blocking agent 1 Hr prior to hapten, 3 h, muscle",3.48 ± 0.77 %/gm
same,"Conc 3 Hrs Post Hapten, Skin","[4]; Ab 25 Hr, blocking agent 1 Hr prior to hapten, 3 h, skin",4.86 ± 0.45 %/gm
same,"Conc 3 Hrs Post Hapten, Spleen","[4]; Ab 25 Hr, blocking agent 1 Hr prior to hapten, 3 h, spleen",0.21 ± 0.04 %/gm
same,"Conc 3 Hrs Post Hapten, Tumor","[4]; Ab 25 Hr, blocking agent 1 Hr prior to hapten, 3 h, tumor",7.72 ± 1.35 %/gm
same,In levels in blood and internal organs relative to tumor (in words),[4]; after clearing agent,In levels in the blood and internal organs was greatly reduced relative to the levels concentrated in the tumor
same,"T/O Ratio, Blood","[4]; blocking agent 1 Hr prior to hapten, 3 h, tumor/blood",9.20
same,"T/O Ratio, Bone","[4]; blocking agent 1 Hr prior to hapten, 3 h, tumor/bone",5.40
same,"T/O Ratio, Gut","[4]; blocking agent 1 Hr prior to hapten, 3 h, tumor/gut",2.97
same,"T/O Ratio, Heart","[4]; blocking agent 1 Hr prior to hapten, 3 h, tumor/heart",8.71
same,"T/O Ratio, Kidneys","[4]; blocking agent 1 Hr prior to hapten, 3 h, tumor/kidneys",7.04
same,"T/O Ratio, Liver","[4]; blocking agent 1 Hr prior to hapten, 3 h, tumor/liver",10.21
same,"T/O Ratio, Lungs","[4]; blocking agent 1 Hr prior to hapten, 3 h, tumor/lungs",3.02
same,"T/O Ratio, Muscle","[4]; blocking agent 1 Hr prior to hapten, 3 h, tumor/muscle",2.33
same,"T/O Ratio, Skin","[4]; blocking agent 1 Hr prior to hapten, 3 h, tumor/skin",1.61
same,"T/O Ratio, Spleen","[4]; blocking agent 1 Hr prior to hapten, 3 h, tumor/spleen",38.03
O=C([O-])CN(CC(=O)[O-])CC(Cc1ccc(NC(=O)CSCCCCS)cc1)N(CC(=O)[O-])CC(=O)[O-].[Co+3] (stereo not drawn) [Co-TBEDTA],whole body retention (in words),[5],substantially greater retention
same,"whole-body scan, label localization at 3 hours (in words)","[6]; FIG. 3A, 3 hours","localization of the label in the kidneys (K), bladder (B) and flank tumor (T)"
same,whole-body scan at 24 hours (in words),"[6]; FIG. 3B, 24 hours",absence of label in the bladder. Good tumor imaging with low background is still achieved
same,tumor uptake and tumor-to-organ ratios (in words),"[6]; Table 3, 3 hours","high tumor-to-organ ratios for blood, and other internal organs"
